Data: PubChem BioAssay AID1963439 (Molecular Pharmacology Branch, DTP, NCI, 2024)

Tested on: NCI-H196 complex spheroids with HUVEC/MSC, growth % T/C
Test: Anticancer human tumor NCI-H196 cell line growth inhibition [Asc];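 further: spheroids exposed to compound for 7 days before measurement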;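 on viability, T/C: 100% = DMSO vehicle control wells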
Details: for IC50: curve of first compound; for viability, T/C: stronger effect = lower value
Summary of the method: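 Stromal components (HUVEC and hMSC) are co-assembled with the cancer cells into multicellular spheroids. Drugs are then added singly or paired, at concentrations falling by half-log increments from a clinically achievable maximum, capped at 10 microM without known Cmax.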

[1] = second compound 0.01 µM, first compound 0.00316 µM
[2] = second compound 0.01 µM, first compound 0.01 µM
[3] = second compound 0.01 µM, first compound 0.0316 µM
[4] = second compound 0.01 µM, first compound 0.1 µM
[5] = second compound 0.0316 µM, first compound 0.00316 µM
[6] = second compound 0.0316 µM, first compound 0.01 µM
[7] = second compound 0.0316 µM, first compound 0.0316 µM
[8] = second compound 0.0316 µM, first compound 0.1 µM
[9] = second compound 0.1 µM, first compound 0.00316 µM
[10] = second compound 0.1 µM, first compound 0.01 µM
[11] = second compound 0.1 µM, first compound 0.0316 µM
[12] = second compound 0.1 µM, first compound 0.1 µM
[13] = second compound 0.316 µM, first compound 0.00316 µM
[14] = second compound 0.316 µM, first compound 0.01 µM
[15] = second compound 0.316 µM, first compound 0.0316 µM
[16] = second compound 0.316 µM, first compound 0.1 µM
[17] = second compound 1 µM, first compound 0.00316 µM
[18] = second compound 1 µM, first compound 0.01 µM
[19] = second compound 1 µM, first compound 0.0316 µM
[20] = second compound 1 µM, first compound 0.1 µM

SMILES: Cc1nc(N2CCC3(CC2)COC(C)C3N)c(CO)nc1Sc1ccnc(N)c1Cl (stereo not given) + CCN1C(C(=O)NC23CCC(C(=O)O)(CC2)CC3)C(c2cccc(Cl)c2F)C2(C(=O)Nc3cc(Cl)ccc32)C12CCCCC2
- IC50 (second compound 0.03 µM): 1540 nM
- IC50 (second compound 0.0949 µM): 1900 nM
- IC50 (second compound 0.3 µM): 1600 nM
- IC50 (second compound 0.949 µM): 1730 nM
- IC50 (second compound 3 µM): 1570 nM
- viability, T/C (second compound 0.03 µM, first compound 0.00949 µM): 102%
- viability, T/C (second compound 0.03 µM, first compound 0.03 µM): 103%
- viability, T/C (second compound 0.03 µM, first compound 0.0949 µM): 115%
- viability, T/C (second compound 0.03 µM, first compound 0.3 µM): 102%
- viability, T/C (second compound 0.03 µM, first compound 0.949 µM): 64.6%
- viability, T/C (second compound 0.03 µM, first compound 3 µM): 30.2%
- viability, T/C (second compound 0.0949 µM, first compound 0.00949 µM): 108%
- viability, T/C (second compound 0.0949 µM, first compound 0.03 µM): 113%
- viability, T/C (second compound 0.0949 µM, first compound 0.0949 µM): 109%
- viability, T/C (second compound 0.0949 µM, first compound 0.3 µM): 95.5%
- viability, T/C (second compound 0.0949 µM, first compound 0.949 µM): 74.1%
- viability, T/C (second compound 0.0949 µM, first compound 3 µM): 34.5%
- viability, T/C (second compound 0.3 µM, first compound 0.00949 µM): 118%
- viability, T/C (second compound 0.3 µM, first compound 0.03 µM): 124%
- viability, T/C (second compound 0.3 µM, first compound 0.0949 µM): 119%
- viability, T/C (second compound 0.3 µM, first compound 0.3 µM): 99.8%
- viability, T/C (second compound 0.3 µM, first compound 0.949 µM): 69.1%
- viability, T/C (second compound 0.3 µM, first compound 3 µM): 27.9%
- viability, T/C (second compound 0.949 µM, first compound 0.00949 µM): 124%
- viability, T/C (second compound 0.949 µM, first compound 0.03 µM): 137%
- viability, T/C (second compound 0.949 µM, first compound 0.0949 µM): 119%
- viability, T/C (second compound 0.949 µM, first compound 0.3 µM): 107%
- viability, T/C (second compound 0.949 µM, first compound 0.949 µM): 72.1%
- viability, T/C (second compound 0.949 µM, first compound 3 µM): 29.9%
- viability, T/C (second compound 3 µM, first compound 0.00949 µM): 136%
- viability, T/C (second compound 3 µM, first compound 0.03 µM): 130%
- viability, T/C (second compound 3 µM, first compound 0.0949 µM): 121%
- viability, T/C (second compound 3 µM, first compound 0.3 µM): 106%
- viability, T/C (second compound 3 µM, first compound 0.949 µM): 67.4%
- viability, T/C (second compound 3 µM, first compound 3 µM): 26.5%

SMILES: Cn1ncnc1[C@H]1c2n[nH]c(=O)c3cc(F)cc(c23)N[C@@H]1c1ccc(F)cc1 + CNC(C)C(=O)NC1CN(S(=O)(=O)c2cccc(S(=O)(=O)N3CCC4CCC(C(=O)NC(c5ccccc5)c5ccccc5)N4C(=O)C(NC(=O)C(C)NC)C3)c2)CCC2CCC(C(=O)NC(c3ccccc3)c3ccccc3)N2C1=O
- IC50 (second compound 0.01 µM): < 0.316 nM
- IC50 (second compound 0.0316 µM): < 0.316 nM
- IC50 (second compound 0.1 µM): < 0.316 nM
- IC50 (second compound 0.316 µM): < 0.316 nM
- IC50 (second compound 1 µM): < 0.316 nM
- viability, T/C (second compound 0.01 µM, first compound 0.000316 µM): 5.99%
- viability, T/C (second compound 0.01 µM, first compound 0.001 µM): 6.41%
- viability, T/C [1]: 5.39%
- viability, T/C [2]: 5.55%
- viability, T/C [3]: 9.54%
- viability, T/C [4]: 6.44%
- viability, T/C (second compound 0.0316 µM, first compound 0.000316 µM): 7.02%
- viability, T/C (second compound 0.0316 µM, first compound 0.001 µM): 6.75%
- viability, T/C [5]: 5.6%
- viability, T/C [6]: 4.53%
- viability, T/C [7]: 3.1%
- viability, T/C [8]: 4.55%
- viability, T/C (second compound 0.1 µM, first compound 0.000316 µM): 4.37%
- viability, T/C (second compound 0.1 µM, first compound 0.001 µM): 3.32%
- viability, T/C [9]: 4.82%
- viability, T/C [10]: 3.9%
- viability, T/C [11]: 2.51%
- viability, T/C [12]: 3.65%
- viability, T/C (second compound 0.316 µM, first compound 0.000316 µM): 3.1%
- viability, T/C (second compound 0.316 µM, first compound 0.001 µM): 3.37%
- viability, T/C [13]: 3.42%
- viability, T/C [14]: 3.57%
- viability, T/C [15]: 2.58%
- viability, T/C [16]: 4.61%
- viability, T/C (second compound 1 µM, first compound 0.000316 µM): 2.27%
- viability, T/C (second compound 1 µM, first compound 0.001 µM): 4.58%
- viability, T/C [17]: 3.37%
- viability, T/C [18]: 3%
- viability, T/C [19]: 3.76%
- viability, T/C [20]: 5.53%

SMILES: O=C(c1ccc(F)c(F)c1Nc1ccc(I)cc1F)N1CC(O)([C@@H]2CCCCN2)C1 + CNC(C)C(=O)NC1CN(S(=O)(=O)c2cccc(S(=O)(=O)N3CCC4CCC(C(=O)NC(c5ccccc5)c5ccccc5)N4C(=O)C(NC(=O)C(C)NC)C3)c2)CCC2CCC(C(=O)NC(c3ccccc3)c3ccccc3)N2C1=O
- IC50 (second compound 0.01 µM): < 3.16 nM
- IC50 (second compound 0.0316 µM): < 3.16 nM
- IC50 (second compound 0.1 µM): < 3.16 nM
- IC50 (second compound 0.316 µM): < 3.16 nM
- IC50 (second compound 1 µM): < 3.16 nM
- viability, T/C [1]: 8.04%
- viability, T/C [2]: 5.36%
- viability, T/C [3]: 5.61%
- viability, T/C [4]: 8.2%
- viability, T/C (second compound 0.01 µM, first compound 0.316 µM): 12.4%
- viability, T/C (second compound 0.01 µM, first compound 1 µM): 17.3%
- viability, T/C [5]: 3.55%
- viability, T/C [6]: 6.82%
- viability, T/C [7]: 5.25%
- viability, T/C [8]: 3.88%
- viability, T/C (second compound 0.0316 µM, first compound 0.316 µM): 6.05%
- viability, T/C (second compound 0.0316 µM, first compound 1 µM): 7.48%
- viability, T/C [9]: 4.86%
- viability, T/C [10]: 5.49%
- viability, T/C [11]: 4.59%
- viability, T/C [12]: 2.13%
- viability, T/C (second compound 0.1 µM, first compound 0.316 µM): 3.06%
- viability, T/C (second compound 0.1 µM, first compound 1 µM): 4.14%
- viability, T/C [13]: 7.23%
- viability, T/C [14]: 3.09%
- viability, T/C [15]: 3.2%
- viability, T/C [16]: 2.51%
- viability, T/C (second compound 0.316 µM, first compound 0.316 µM): 3.39%
- viability, T/C (second compound 0.316 µM, first compound 1 µM): 3.61%
- viability, T/C [17]: 3.63%
- viability, T/C [18]: 3.54%
- viability, T/C [19]: 4.37%
- viability, T/C [20]: 2.53%
- viability, T/C (second compound 1 µM, first compound 0.316 µM): 2.07%
- viability, T/C (second compound 1 µM, first compound 1 µM): 3.08%
